Laboratory results taken from patent US20110060009A1, “Hydroxamate-Based Inhibitors of Deacetylases” (NOVARTIS AG, priority 2009, published 2011).

What was measured:
[1] = tested on: HCT116; assay: HCT116 IC50 (Table 2, no method described); type: cell-based; settings: Homo sapiens, HCT-116
[2] = molecular target: T1, HDAC-1 (Homo sapiens, UniProt Q13547); assay: HDAC Inhibition Assay (purified GST-HDAC protein); type: biochemical
T1 construct: made in house; host or cells: Sf9 or Sf21 insect cells (baculovirus, donor vector pFB-GSTX3)
T1 sequence (Q13547 whole entry, species assumed): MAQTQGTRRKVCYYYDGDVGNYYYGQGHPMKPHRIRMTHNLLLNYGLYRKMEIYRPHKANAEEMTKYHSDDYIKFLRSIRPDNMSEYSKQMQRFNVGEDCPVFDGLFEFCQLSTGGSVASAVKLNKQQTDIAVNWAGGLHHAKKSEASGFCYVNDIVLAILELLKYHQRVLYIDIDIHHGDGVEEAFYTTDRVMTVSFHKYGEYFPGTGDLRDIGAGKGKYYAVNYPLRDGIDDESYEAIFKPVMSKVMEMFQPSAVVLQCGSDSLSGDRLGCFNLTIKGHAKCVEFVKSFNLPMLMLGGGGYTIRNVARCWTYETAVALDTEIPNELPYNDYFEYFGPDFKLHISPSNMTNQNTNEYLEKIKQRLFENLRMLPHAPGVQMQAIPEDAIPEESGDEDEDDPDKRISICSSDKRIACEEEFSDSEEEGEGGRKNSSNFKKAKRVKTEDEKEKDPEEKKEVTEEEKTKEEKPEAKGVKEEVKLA
Excerpt: The baculovirus donor vector pFB-GSTX3 is used to generate a recombinant baculovirus that expresses the HDAC polypeptide. Transfer vectors containing the HDAC coding region are transfected into the DH10Bac cell line (GIBCO) and plated on selective agar plates. Colonies without insertion of the fusion sequence into the viral genome (carried by the bacteria) are blue. Single, white colonies are picked and viral DNAs (bacmid) are isolated from the bacteria by standard plasmid purification procedures. Sf9 cells or Sf21 (American Type Culture Collection) cells are then transfected in […] flasks with the viral DNA using Cellfectin reagent.
Virus-containing media is collected from the transfected cell culture and used for infection to increase its titer. Virus-containing media obtained after two rounds of infection is used for large-scale protein expression. For large-scale protein expression 100 cm^2 round tissue culture plates are seeded with 5×10^7 cells/plate and infected with 1 mL of virus-containing media (at an approximately MOI of 5). After 3 days, the cells are scraped off the plate and centrifuged at 500 rpm for 5 minutes. Cell pellets from 10-20, 100 cm^2 plates, are re-suspended in 50 mL of ice-cold lysis buffer (25 mM tris-HCl, pH 7.5, 2 mM EDTA, 1% NP-40, 1 mM DTT, 1 mM P MSF). The cells are stirred on ice for 15 minutes and then centrifuged at 5,000 rpms for 20 minutes.
The centrifuged cell lysate is loaded onto a 2 mL glutathione-sepharose column (Pharmacia) and is washed thrice with 10 mL of 25 mM tris-HCl, pH 7.5, 2 mM EDTA, 1 mM DTT, 200 mM NaCl. The GST-tagged proteins are then eluted by 10 applications (1 mL each) of 25 mM tris-HCl, pH 7.5, 10 mM reduced-glutathione, 100 mM NaCl, 1 mM DTT, 10% glycerol and stored at −70° C.
HDAC assays with purified GST-HDAC protein are carried out in a final volume of 30 μL containing 15 ng of GST-HDAC protein, 20 mM tris-HCl, pH 7.5, 1 mM MnCl2, 10 mM MgCl2, 1 mM DTT, 3 μg/mL poly(Glu,Tyr) 4:1, 1% DMSO, 2.0 μM ATP (γ-[^33P]-ATP 0.1 μCi). The activity is assayed in the presence or absence of inhibitors. The assay is carried out in 96-well plates at ambient temperature for 15 minutes under conditions described below and terminated by the addition of 20 μL of 125 mM EDTA. Subsequently, 40 μL of the reaction mixture are transferred onto EMMOBILON-PVDF membrane (Millipore) previously soaked for 5 minutes with methanol, rinsed with water, then soaked for 5 minutes with 0.5% H3PO4 and mounted on vacuum manifold with disconnected vacuum source. After spotting all samples, a vacuum is connected and each well-rinsed with 200 μL 0.5% H3PO4. Membranes are removed and washed four times on a shaker with 1.0% H3PO4, once with ethanol. Membranes are counted after drying at ambient temperature, mounting in Packard TopCount 96-well frame, and addition of 10 μL/well of MICROSCINT™ (Packard). IC50 values are calculated by linear regression analysis of the percentage inhibition of each compound in duplicate, at 4 concentrations (usually 0.01, 0.1, 1 and 10 μM).
• Input: 3×4 μL stopped assay on IMMOBILON membrane, not washed • Background (3 wells): assay with H2O instead of enzyme • Positive control (4 wells): 3% DMSO instead of compound • Bath control (1 well): no reaction mix
IC50 values are calculated by logarithmic regression analysis of the percentage inhibition of each compound at 4 concentrations (usually 3- or 10-fold dilution series starting at 10 μM). In each experiment, the actual inhibition by reference compound is used for normalization of IC50 values to the basis of an average value of the reference inhibitor:
Normalized IC50=measured IC50 average ref. IC50/measured ref. IC50

In the case of `Cc1[nH]c2ccccc2c1C[C@H]1C[C@@H](O)CN1Cc1ccc(/C=C/C(=O)NO)cc1` [Cpd 20, (E)-N-Hydroxy-3-{4-[(2S,4R)-4-hydroxy-2-(2-methyl-1H-indol-3-ylmethyl)-pyrrolidin-1-ylmethyl]-phenyl}-acrylamide], the IC50 [1] is reported as 1 nM and the IC50 [2] is reported as 0.6 nM.

`Cc1cc(C)n(C[C@H]2CCCN2Cc2ccc(/C=C/C(=O)NO)cc2)n1` [Cpd 50, (E)-3-{4-[(R)-2-(3,5-Dimethyl-pyrazol-1-ylmethyl)-pyrrolidin-1-ylmethyl]-phenyl}-N-hydroxy-acrylamide] was tested, and the IC50 [1] was 4 nM and the IC50 [2] was 3 nM.

Compound `O=C(/C=C/c1ccc(CN2CCC[C@@H]2Cc2c[nH]c3ccccc23)cc1)NO` [Cpd 2, (E)-N-Hydroxy-3-{4-[(R)-2-(1H-indol-3-ylmethyl)-pyrrolidin-1-ylmethyl]-phenyl}-acrylamide] has an IC50 [1] of 3 nM and an IC50 [2] of 0.65 nM.

`Cc1[nH]c2ccccc2c1C[C@H]1CCCN1Cc1ccc(/C=C/C(=O)NO)cc1` [Cpd 4, (E)-N-Hydroxy-3-{4-[(R)-2-(2-methyl-1H-indol-3-ylmethyl)-pyrrolidin-1-ylmethyl]-phenyl}-acrylamide] showed an IC50 [1] of 0.4 nM and an IC50 [2] of 0.65 nM.

`O=C(/C=C/c1ccc(CN2C[C@H](O)C[C@@H]2Cc2c[nH]c3ccccc23)cc1)NO` [Cpd 23, (E)-N-Hydroxy-3-{4-[(2S,4R)-4-hydroxy-2-(1H-indol-3-ylmethyl)-pyrrolidin-1-ylmethyl]-phenyl}-acrylamide] showed an IC50 [1] of 8 nM and an IC50 [2] of 1.7 nM.

`CO[C@H]1C[C@H](Cc2c(C)[nH]c3ccccc23)N(Cc2ccc(/C=C/C(=O)NO)cc2)C1` [Cpd 25, (E)-N-Hydroxy-3-{4-[(2S,4S)-4-methoxy-2-(2-methyl-1H-indol-3-ylmethyl)-pyrrolidin-1-ylmethyl]-phenyl}-acrylamide] gave an IC50 [1] of 0.4 nM and an IC50 [2] of 1.2 nM.

For `O=C(/C=C/c1ccc(CN2CCC[C@H]2C(=O)N2CCc3ccccc32)cc1)NO` [Cpd 18, (E)-3-{4-[(S)-2-(2,3-Dihydro-indole-1-carbonyl)-pyrrolidin-1-ylmethyl]-phenyl}-N-hydroxy-acrylamide], the IC50 [1] was 7000 nM and the IC50 [2] was 350 nM.

In the case of `O=C(/C=C/c1ccc(CN2CCC[C@@H]2Cc2c[nH]c3ccccc23)c(F)c1)NO` [Cpd 9, (E)-3-{3-Fluoro-4-[(R)-2-(1H-indol-3-ylmethyl)-pyrrolidin-1-ylmethyl]-phenyl}-N-hydroxy-acrylamide], the IC50 [1] is reported as 3 nM and the IC50 [2] is reported as 1.3 nM.

`O=C(/C=C/c1ccc(CN2C[C@@H](O)C[C@@H]2Cc2c[nH]c3ccccc23)cc1)NO` [Cpd 22, (E)-N-Hydroxy-3-{4-[(2S,4S)-4-hydroxy-2-(1H-indol-3-ylmethyl)-pyrrolidin-1-ylmethyl]-phenyl}-acrylamide] showed an IC50 [1] of 4 nM and an IC50 [2] of 0.45 nM.
